In patent publication US20240148686A1, “PHARMACEUTICAL COMPOSITION OF FORSKOLIN-ISOFORSKOLIN AND PENTACYCLIC TRITERPENOID COMPOUND, AND APPLICATION THEREOF” (CHINA PHARMACEUTICAL UNIVERSITY, priority 2021, published 2024):
Marks after values point to notes of the source that are not given here.

Columns and labels:
[1] = test system: NAFLD model mice (obesity and fatty liver models induced by a high-fat diet); test: Therapeutic effects on obesity and fatty liver (NAFLD) models induced by a high-fat diet; type: in vivo, C57 mice; details: for serum FFA content / serum TC content / hepatic TG content: fatty liver model mice, total 20 mg/kg intragastric once a day for 12 weeks, x±s; for serum FFA content / serum TC content: high-fat diet 12 weeks; for hepatic TG content: liver homogenate supernatant
Procedure: (§1) Notes: Statistical analysis is conducted by the GraphPad Prism 8.0 statistical software, and statistical analysis results are analyzed by t-Test. Compared with a model group, *P<0.05 indicates a statistically-significant difference between the groups: **P<0.01, […], and ****P<0.0001.
160 SPF-grade male C57 mice at 8 weeks to 9 weeks were adaptively raised for one week, and then 140 obese mice with a consistent body weight were selected and evenly divided into 14 groups with 10 mice per group, including a model group (M group), a forskolin group (F group), an isoforskolin group (IF group), an asiatic acid group (AA group), an asiaticoside group (AS group), an OA group (OA group), a betulinic acid group (BA group), a forskolin+asiatic acid combined administration group (F+AA group), a forskolin+asiaticoside combined administration group (F+AS group), forskolin+OA combined administration groups (low, medium, and high) (F+OA-1:4, 1:1, and 4:1 groups), a forskolin+betulinic acid combined administration group (F+BA group), and an isoforskolin+OA combined administration group (IF+OA group). The mice were fed by a high-fat diet (including 35% of fat, 26% of carbohydrates, and 26% of proteins) continuously for 12 weeks to establish obesity and fatty liver models, and during the modeling, a drug was intragastrically administered continuously for 12 weeks. The experimental animals were raised in ordinary mouse cages in an environment with a room temperature of 24±2° C., a humidity of 40% to 60%, and a 12 h light/12 h dark cycle.
Administration mode: A drug was prepared with a 0.5% CMC-Na solution as a solvent into a suspension, and the suspension was intragastrically administered once a day continuously for 12 weeks.
The mice were administered with a drug continuously for 12 weeks, and after the last administration, the mice were fasted without water deprivation for 12 h; a body weight of each mouse was measured, eyeballs were removed, blood was collected, and a liver was taken out and weighed; a part of the liver tissue was stored in 4% paraformaldehyde (PFA), and another part of the liver tissue was stored in liquid nitrogen; and inguinal fat was collected from a right thigh of each mouse, weighed, and stored in liquid nitrogen.
A blood sample was allowed to stand in a 4° C. refrigerator for 4 h and then centrifuged at 3,500 rpm for 10 min to 15 min; and a resulting supernatant was collected and tested by a blood bio-chemical analyzer to determine the FFA and TC levels in serum. The liver tissue stored in 4% PFA was frozen and sectioned, and then stained with oil red O to obtain slide specimens. The liver tissue stored in liquid nitrogen was homogenized and then centrifuged, and a resulting supernatant was collected and then tested by a kit to determine a TG content.

[2] = test system: chronic liver fibrosis model mice induced by CCl4; test: Therapeutic effects on chronic liver fibrosis model induced by CCl4; type: in vivo, C57BL/6 mice; details: total 20 mg/kg intragastric once a day for 8 weeks, x±s
Procedure: as §1
140 C57 mice were selected and evenly divided into 14 groups with 10 mice per group, including a model group (M group), a forskolin group (F group), an isoforskolin group (IF group), an asiatic acid group (AA group), an asiaticoside group (AS group), an OA group (OA group), a betulinic acid group (BA group), a forskolin+asiatic acid combined administration group (F+AA group), a forskolin+asiaticoside combined administration group (F+AS group), forskolin+OA combined administration groups (low, medium, and high) (F+OA-1:4, 1:1, and 4:1 groups), a forskolin+betulinic acid combined administration group (F+BA group), and an isoforskolin+OA combined administration group (IF+OA group). Every Thursday and Sunday, all mice each were intraperitoneally injected with a 5% carbon tetrachloride (CCl4)-containing olive oil solution continuously for 8 weeks at an injection volume of 20 mL/kg to obtain a liver fibrosis model caused by chronic liver damage.
Administration mode: A drug was prepared with a 0.5% CMC-Na solution as a solvent into a suspension, and the suspension was intragastrically administered once a day continuously for 8 weeks.
The mice were administered with a drug continuously for 8 weeks, and after the last administration, the mice were fasted without water deprivation for 12 h; a body weight of each mouse was measured, eyeballs were removed, blood was collected, and a liver was taken out and weighed; and a part of the liver tissue was stored in 4% PFA, and another part of the liver tissue was stored in liquid nitrogen.
A blood sample was allowed to stand in a 4° C. refrigerator for 4 h and then centrifuged at 3,500 rpm for 10 min to 15 min; and a resulting supernatant was collected and tested by a kit to determine AST and ALT levels. The liver tissue stored in liquid nitrogen was homogenized and then centrifuged, and a resulting supernatant was collected and then tested by an enzyme-linked immunosorbent assay (ELISA) kit to determine a PCIII content. The liver tissue stored in 4% PFA was dehydrated, fixed, sectioned, and stained to obtain H&E-stained and Sirius red-stained slide specimens.

Row | Compound | serum FFA content [1] | serum TC content [1] | hepatic TG content [1] | serum ALT content [2] | serum AST content [2] | body weight increase (FIG. 1), in words ([1]; NAFLD model mice, total 20 mg/kg intragastric daily, 12 weeks)
1 | CC1(C)CC[C@]2(C(=O)O)CC[C@]3(C)C(=CC[C@@H]4[C@@]5(C)CC[C@H](O)C(C)(C)[C@@H]5CC[C@]43C)[C@@H]2C1 [OA, Oleanolic acid] | 1.182 ± 0.113* mmol/L | 6.84 ± 0.54* mmol/L | 1.03 ± 0.09* mmol/L | 888 ± 53 U/L | 436 ± 51 U/L | 
2 | C=C(C)[C@@H]1CC[C@]2(C(=O)O)CC[C@]3(C)[C@H](CC[C@@H]4[C@@]5(C)CC[C@H](O)C(C)(C)[C@@H]5CC[C@]43C)[C@@H]12 [BA, Betulinic acid] | 1.245 ± 0.201 mmol/L | 7.02 ± 0.63 mmol/L | 1.10 ± 0.08 mmol/L | 849 ± 34 U/L | 422 ± 45* U/L | 
3 | Forskolin | 1.324 ± 0.124 mmol/L | 7.44 ± 0.86 mmol/L | 1.01 ± 0.07* mmol/L | 922 ± 32 U/L | 447 ± 31 U/L | can inhibit the increase of a body weight of mice similarly
4 | Asiaticoside | 1.238 ± 0.186* mmol/L | 7.09 ± 0.34 mmol/L | 1.18 ± 0.08 mmol/L | 882 ± 25 U/L | 406 ± 63* U/L | 
5 | C[C@H]1[C@H](C)CC[C@]2(C(=O)O)CC[C@]3(C)C(=CC[C@@H]4[C@@]5(C)C[C@@H](O)[C@H](O)[C@@](C)(CO)[C@@H]5CC[C@]43C)[C@H]12 [AA, Asiatic acid] | 1.286 ± 0.143 mmol/L | 7.26 ± 0.74 mmol/L | 1.17 ± 0.12 mmol/L | 815 ± 53* U/L | 399 ± 22* U/L | 
